Measured values from the supplement of paper PMC9663587.

Assays:
[1] = compound: COc1ccc2c(c1)[C@]1(C[C@H]1c1ccc3c(/C=C/c4ccc(CN5C[C@@H](C)O[C@@H](C)C5)cc4)n[nH]c3c1)C(=O)N2
[2] = compound: CO[C@@H](C)Cn1c(=O)n(C)c2cnc3ccc(-c4cncc(C(C)(C)O)c4)cc3c21
Alpelisib/BYL719 = compound: Cc1nc(NC(=O)N2CCC[C@H]2C(N)=O)sc1-c1ccnc(C(C)(C)C(F)(F)F)c1 [Alpelisib/BYL719]
[3] = compound: CC(=O)Nc1cccc(-n2c(=O)n(C3CC3)c(=O)c3c(Nc4ccc(I)cc4F)n(C)c(=O)c(C)c32)c1
[4] = compound: CCCCOc1c(C(=O)c2c(F)cc(C)cc2F)c[nH]c2nncc1-2
Rucaparib = compound: CNCc1ccc(-c2[nH]c3cc(F)cc4c3c2CCNC4=O)cc1 [Rucaparib]
Cediranib/AZD2171 = compound: COc1cc2c(Oc3ccc4[nH]c(C)cc4c3F)ncnc2cc1OCCCN1CCCC1 [Cediranib/AZD2171]
Saracatinib/AZD0530 = compound: CN1CCN(CCOc2cc(OC3CCOCC3)c3c(Nc4c(Cl)ccc5c4OCO5)ncnc3c2)CC1 [Saracatinib/AZD0530]
AZD1775 = compound: C=CCn1c(=O)c2cnc(Nc3ccc(N4CCN(C)CC4)cc3)nc2n1-c1cccc(C(C)(C)O)n1 [AZD1775]
THZ1 [5] = compound: T1, CN(C)C/C=C/C(=O)Nc1ccc(C(=O)Nc2cccc(Nc3ncc(Cl)c(-c4c[nH]c5ccccc45)n3)c2)cc1 [THZ1]
THZ531 [6] = compound: T2, CN(C)C/C=C/C(=O)Nc1ccc(C(=O)N2CCC[C@@H](Nc3ncc(Cl)c(-c4c[nH]c5ccccc45)n3)C2)cc1 [THZ531]
BVD523 = compound: CC(C)Nc1cc(-c2c[nH]c(C(=O)N[C@H](CO)c3cccc(Cl)c3)c2)c(Cl)cn1 [BVD523]
[7] = compound: CC(=O)c1c(C)c2cnc(Nc3ccc(N4CCNCC4)cn3)nc2n(C2CCCC2)c1=O; test: increase in dead-cell fraction, 72 h; higher = more death;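 note: breast cancer cell lines in 384-well plates, stained with Hoechst plus LIVE/DEAD far red dye and imaged, cells above an LDR intensity threshold counted dead, Hoechst-negative corpses included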
Neratinib/HKI272 = compound: CCOc1cc2ncc(C#N)c(Nc3ccc(OCc4ccccn4)c(Cl)c3)c2cc1NC(=O)/C=C/CN(C)C [Neratinib/HKI272]; test: as above
YKL-5-124 = compound: C=CC(=O)Nc1ccc(C(=O)Nc2[nH]nc3c2CN(C(=O)N[C@H](CN(C)C)c2ccccc2)C3(C)C)cc1 [YKL-5-124]; test: as above
BSJ-03-123 = compound: CC(=O)c1c(C)c2cnc(Nc3ccc(N4CCN(CCOCCOCCOCCNC(=O)COc5cccc6c5C(=O)N(C5CCC(=O)NC5=O)C6=O)CC4)cn3)nc2n(C2CCCC2)c1=O [BSJ-03-123]; test: as above
LEE011/Ribociclib = compound: CN(C)C(=O)c1cc2cnc(Nc3ccc(N4CCNCC4)cn3)nc2n1C1CCCC1 [LEE011/Ribociclib]; test: as above
[8] = compound: CCc1cnn2c(NCc3ccc[n+]([O-])c3)cc(N3CCCC[C@H]3CCO)nc12; test: as above
THZ1 [9] = compound: T1, THZ1; test: as above
THZ531 [10] = compound: T2, THZ531; test: as above
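Throughout, for GR50, 72 h: breast cancer and non-malignant breast epithelial cell lines, Deep Dye Drop or Dye Drop imaging, nine half-log doses, GR normalized to time-zero plates and DMSO-only controls.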

For HCC1937, the “GR50, 72 h” value [1] was 0.00432 µM, the “GR50, 72 h” value [2] was 0.139 µM and the “GR50, 72 h” value (Alpelisib/BYL719) was > 10 µM. The “GR50, 72 h” value [3] was > 1 µM, the “GR50, 72 h” value [4] was < 0.001 µM and the “GR50, 72 h” value (Rucaparib) was > 10 µM. The “GR50, 72 h” value (Cediranib/AZD2171) was 8.4 µM, the “GR50, 72 h” value (Saracatinib/AZD0530) was > 10 µM and the “GR50, 72 h” value (AZD1775) was 0.00892 µM. For the same cell line, the “GR50, 72 h” value (THZ1 [5]) was 0.0648 µM, the “GR50, 72 h” value (THZ531 [6]) was 0.26 µM and the “GR50, 72 h” value (BVD523) was > 10 µM. For the same cell line, the “increase in dead-cell fraction” value ([7]; 0.0003162 µM) was -0.0018, the “increase in dead-cell fraction” value ([7]; 0.001 µM) was -0.0051 and the “increase in dead-cell fraction” value ([7]; 0.003162 µM) was 0.0021. For the same cell line, the “increase in dead-cell fraction” value ([7]; 0.01 µM) was 0.0002, the “increase in dead-cell fraction” value ([7]; 0.03162 µM) was -0.0009 and the “increase in dead-cell fraction” value ([7]; 0.1 µM) was -0.0009. For the same cell line, the “increase in dead-cell fraction” value ([7]; 0.3162 µM) was -0.0038, the “increase in dead-cell fraction” value ([7]; 1 µM) was -0.0027 and the “increase in dead-cell fraction” value ([7]; 3.162 µM) was -0.0018. The “increase in dead-cell fraction” value (Neratinib/HKI272; 0.0003162 µM) was 0.0017, the “increase in dead-cell fraction” value (Neratinib/HKI272; 0.001 µM) was 0.0031 and the “increase in dead-cell fraction” value (Neratinib/HKI272; 0.003162 µM) was 0.0127. For the same cell line, the “increase in dead-cell fraction” value (Neratinib/HKI272; 0.01 µM) was 0.0186, the “increase in dead-cell fraction” value (Neratinib/HKI272; 0.03162 µM) was 0.0314 and the “increase in dead-cell fraction” value (Neratinib/HKI272; 0.1 µM) was 0.0326. The “increase in dead-cell fraction” value (Neratinib/HKI272; 0.3162 µM) was 0.0327, the “increase in dead-cell fraction” value (Neratinib/HKI272; 1 µM) was 0.0368 and the “increase in dead-cell fraction” value (Neratinib/HKI272; 3.162 µM) was 0.0974. The “increase in dead-cell fraction” value (YKL-5-124; 0.001 µM) was 0.004, the “increase in dead-cell fraction” value (YKL-5-124; 0.003162 µM) was 0.0243 and the “increase in dead-cell fraction” value (YKL-5-124; 0.01 µM) was 0.0426. For the same cell line, the “increase in dead-cell fraction” value (YKL-5-124; 0.03162 µM) was 0.0331, the “increase in dead-cell fraction” value (YKL-5-124; 0.1 µM) was 0.0403 and the “increase in dead-cell fraction” value (YKL-5-124; 0.3162 µM) was 0.0391. For the same cell line, the “increase in dead-cell fraction” value (YKL-5-124; 1 µM) was 0.0843, the “increase in dead-cell fraction” value (YKL-5-124; 3.162 µM) was 0.0582 and the “increase in dead-cell fraction” value (YKL-5-124; 10 µM) was 0.0895. The “increase in dead-cell fraction” value (BSJ-03-123; 0.001 µM) was 0.001, the “increase in dead-cell fraction” value (BSJ-03-123; 0.003162 µM) was -0.0071 and the “increase in dead-cell fraction” value (BSJ-03-123; 0.01 µM) was 0.0079. The “increase in dead-cell fraction” value (BSJ-03-123; 0.03162 µM) was 0, the “increase in dead-cell fraction” value (BSJ-03-123; 0.1 µM) was 0.0032 and the “increase in dead-cell fraction” value (BSJ-03-123; 0.3162 µM) was -0.0022. For the same cell line, the “increase in dead-cell fraction” value (BSJ-03-123; 1 µM) was -0.0018, the “increase in dead-cell fraction” value (BSJ-03-123; 3.162 µM) was -0.0018 and the “increase in dead-cell fraction” value (BSJ-03-123; 10 µM) was 0.0245. The “increase in dead-cell fraction” value (LEE011/Ribociclib; 0.001 µM) was -0.0088, the “increase in dead-cell fraction” value (LEE011/Ribociclib; 0.003162 µM) was -0.0054 and the “increase in dead-cell fraction” value (LEE011/Ribociclib; 0.01 µM) was -0.0115. For the same cell line, the “increase in dead-cell fraction” value (LEE011/Ribociclib; 0.03162 µM) was -0.0122, the “increase in dead-cell fraction” value (LEE011/Ribociclib; 0.1 µM) was -0.0012 and the “increase in dead-cell fraction” value (LEE011/Ribociclib; 0.3162 µM) was -0.0035. The “increase in dead-cell fraction” value (LEE011/Ribociclib; 1 µM) was -0.0021, the “increase in dead-cell fraction” value (LEE011/Ribociclib; 3.162 µM) was -0.0077 and the “increase in dead-cell fraction” value (LEE011/Ribociclib; 10 µM) was 0.0003. The “increase in dead-cell fraction” value ([8]; 0.0001 µM) was 0.0021, the “increase in dead-cell fraction” value ([8]; 0.0003162 µM) was -0.0036 and the “increase in dead-cell fraction” value ([8]; 0.001 µM) was 0.0015. The “increase in dead-cell fraction” value ([8]; 0.003162 µM) was -0.0021, the “increase in dead-cell fraction” value ([8]; 0.01 µM) was 0.0113 and the “increase in dead-cell fraction” value ([8]; 0.03162 µM) was 0.156. For the same cell line, the “increase in dead-cell fraction” value ([8]; 0.1 µM) was 0.192, the “increase in dead-cell fraction” value ([8]; 0.3162 µM) was 0.181 and the “increase in dead-cell fraction” value ([8]; 1 µM) was 0.19. The “increase in dead-cell fraction” value (THZ1 [9]; 0.0001 µM) was -0.0003, the “increase in dead-cell fraction” value (THZ1 [9]; 0.0003162 µM) was -0.0027 and the “increase in dead-cell fraction” value (THZ1 [9]; 0.001 µM) was -0.0105. For the same cell line, the “increase in dead-cell fraction” value (THZ1 [9]; 0.003162 µM) was -0.0045, the “increase in dead-cell fraction” value (THZ1 [9]; 0.01 µM) was -0.0053 and the “increase in dead-cell fraction” value (THZ1 [9]; 0.03162 µM) was -0.0002. The “increase in dead-cell fraction” value (THZ1 [9]; 0.1 µM) was 0.06, the “increase in dead-cell fraction” value (THZ1 [9]; 0.3162 µM) was 0.0438 and the “increase in dead-cell fraction” value (THZ1 [9]; 1 µM) was 0.104. For the same cell line, the “increase in dead-cell fraction” value (THZ531 [10]; 0.0001 µM) was 0.0017, the “increase in dead-cell fraction” value (THZ531 [10]; 0.0003162 µM) was 0.0017 and the “increase in dead-cell fraction” value (THZ531 [10]; 0.001 µM) was 0.0043. The “increase in dead-cell fraction” value (THZ531 [10]; 0.003162 µM) was -0.0008, the “increase in dead-cell fraction” value (THZ531 [10]; 0.01 µM) was -0.0084 and the “increase in dead-cell fraction” value (THZ531 [10]; 0.03162 µM) was -0.0082. The “increase in dead-cell fraction” value (THZ531 [10]; 0.1 µM) was 0.0051, the “increase in dead-cell fraction” value (THZ531 [10]; 0.3162 µM) was 0.0511 and the “increase in dead-cell fraction” value (THZ531 [10]; 1 µM) was 0.0969.
